Measured values from patent US20220241409A1, “WATER SOLUBLE ADJUVANT AND COMPOSITION CONTAINING SAME” (Sumitomo Dainippon Pharma Co., Ltd., priority 2019, published 2022).

Key:
[1] = system: HLA-A*24:02 transgenic mouse; experiment: In vivo adjuvant activity, CTL induction with vaccine e, IFNγ ELISPOT (Test 16); details: 0.4 nmol per body added to vaccine e versus no compound; twice
Protocol: The in vivo adjuvant activity of the compound of Example 2 was evaluated in the following procedure. To a vaccine prepared by mixing Peptide SEQ ID No. 18 prepared in Reference example 18 with Montanide ISA 51 VG (hereinafter, referred to as “vaccine e”) was added the compound prepared in Example 2 to prepare a vaccine. The vaccine was administered to a HLA-A*24:02 transgenic mouse, and the adjuvant activity of the vaccine was evaluated by the method of testing antigen-specific CTL induction. The TYAGCLSQIF in Peptide SEQ ID No. 18 corresponds to an antigen peptide derived from an HLA-A*24:02-restricted Or7c1 protein.
(§1) The character for inducing CTLs specific to the antigen peptide (SEQ ID No. 18) by vaccine e was evaluated by measuring whether IFNγ can be produced upon stimulation of splenocytes from the mouse with the peptide. In addition, the character for exerting in vivo adjuvant activity by the compound in Example 2 was evaluated by comparing the number of CTLs induced by vaccine e and the number of CTLs induced by the vaccine prepared by adding the compound prepared in Example 2 to vaccine e, and checking presence or absence of the increase on the number.
Specifically, Peptide of SEQ ID No. 18 was dissolved in DMSO, and then diluted with water for injection to concentrations of 3 mg/mL. […]

[2] = system: HLA-A*24:02 transgenic mouse; experiment: In vivo adjuvant activity, CTL induction with vaccine f, IFNγ ELISPOT (Test 19); details: 0.4 nmol per body added to vaccine f versus no compound; twice
Protocol: The in vivo adjuvant activity of the compound of Example 2 was evaluated in the following procedure. To a vaccine prepared by mixing Peptide SEQ ID No. 5 prepared in Reference example 19 with a preliminarily-emulsified composition (hereinafter, referred to as “vaccine f”) was added the compound prepared in Example 2 to prepare a vaccine. The vaccine was administered to a HLA-A*24:02 transgenic mouse, and the adjuvant activity of the vaccine was evaluated by the method of testing antigen-specific CTL induction. The CYTWNQMNL (SEQ ID No. 2) in Peptide SEQ ID No. 5 corresponds to an antigen peptide derived from an HLA-A*24:02-restricted WT1 protein.
as §1, with “No. 2)” for “No. 18)”, “vaccine f” for “vaccine e”, “vaccine f,” for “vaccine e,”
Specifically, Peptide of SEQ ID No. 5 was dissolved in DMSO, and then diluted with water for injection to concentrations of 3 mg/mL. […]

[3] = system: mouse splenocyte; experiment: Activation of immune cells, mouse splenocyte cytokine/chemokine production (Test 5); type: cell-based; details: 200 nmol/L, one day, compared with only DMSO
Protocol: Splenocyte was derived from the spleen of a HLA-A*02:01 transgenic mouse, and cryopreserved. Cryopreserved mouse splenocyte was reconstituted, suspended in RPMI 1640 medium with 10% FBS, and seeded on a U-bottom 96 well plate at 4×10^5 cells/well. The compound prepared in Example 3 was added in the presence of 0.1% (v/v) DMSO to the wells at a final concentration of 200 nmol/L. The plate was incubated at 37° C. under an atmosphere of 5% CO2. One day after the incubation, the culture supernatant was collected. The concentration of cytokine and chemokine (GM-CSF, IFNγ, IL-6, IP-10, MCP-1, MIP-1α, MIP-1β, Rantes, and TNFα) which were included in each culture supernatant was measured with Milliplex Mouse Cytokine/Chemokine Magnetic Bead Panel kit and Luminex system in accordance with the manufacturer's protocol.
The results are shown in FIG. 3-A to FIG. 3-I. The white bar indicates the mean number of the concentration of cytokine and chemokine in the culture supernatant from three wells to which only DMSO was added, and the black bar indicates the mean number of the concentration of cytokine and chemokine in the culture supernatant from three wells to which the compound prepared in Example 3 was added. The compound prepared in Example 3 made the yield of cytokine and chemokine higher, compared with the case of only DMSO.

| Structure (SMILES) | CTL counts responsive to Peptide SEQ ID No. 18 [1] | CTL counts responsive to Peptide of SEQ ID No. 2 [2] | yield of cytokine and chemokine (GM-CSF, IFNγ, IL-6, IP-10, MCP-1, MIP-1α, MIP-1β, Rantes, TNFα) [3] |
| --- | --- | --- | --- |
| CCCCOc1nc(N)c2[nH]c(=O)n(Cc3ccc(CN(C)CCOCCOCCOCCOCCO)nc3)c2n1 [Example 2, 6-amino-2-butoxy-9-{[6-(16-hydroxy-2-methyl-5,8,11,14-tetraoxa-2-azahexadecan-1-yl)pyridin-3-yl]methyl}-7,9-dihydro-8H-purin-8-one-trifluoroacetate] | more | more | – |
| CCCCOc1nc(N)c2[nH]c(=O)n(Cc3ccc(CN(C)CCOCCOCCOCCOCCO)cc3)c2n1 [Example 3, 6-amino-2-butoxy-9-{[4-(16-hydroxy-2-methyl-5,8,11,14-tetraoxa-2-azahexadecan-1-yl)phenyl]methyl}-7,9-dihydro-8H-purin-8-one] | – | – | higher |
